According to US4172891A, “Cephalosporins” (Takeda Chemical Industries, Inc., priority 1976, dated 1979):
Where two headings read alike, the source gives them in different places.

Key:
[1] = test system: E. coli NIHJ; assay: Minimum Inhibitory Concentration, agar dilution, E. coli NIHJ; format: cell-based; details: Escherichia coli, read-out: Minimum Inhibitory Concentration
From the text: (§1) […]. | Minimum Inhibitory Concentrations (mcg/ml, agar dilution)

[2] = test system: P. mirabilis GN 4359; assay: Minimum Inhibitory Concentration, agar dilution, P. mirabilis GN 4359; format: cell-based; details: Proteus mirabilis
From the text: as §1

[3] = test system: P. rettgeri GN 4733; assay: Minimum Inhibitory Concentration, agar dilution, P. rettgeri GN 4733; format: cell-based, Proteus rettgeri; details: Providencia rettgeri
From the text: as §1

[4] = test system: P. morganii IFO 3168; assay: Minimum Inhibitory Concentration, agar dilution, P. morganii IFO 3168; format: cell-based, Proteus morganii; details: Morganella morganii
From the text: as §1

[5] = test system: Escherichia coli O-111; assay: Comparative protection test on infected mice; format: in vivo; details: O111, sc, 168 h; male ICR/SLC mice infected intraperitoneally with Escherichia coli O-111; single subcutaneous dose immediately after challenge; 7 days observation
From the text: (§2) Following each example is a tabulation of the minimal inhibitory concentrations (MIC) of the present compound [I] obtained in accordance with the particular example against several representative gram-negative bacteria and the corresponding concentrations of cephaloridine [7-(2-thienylacetamido)-3-(1-pyridyl)methyl-3-cephem-4-carboxylic acid betaine] and cefazolin [sodium 7-(1H-tetrazol-1-yl)acetamido-3-(2-methyl-1,3,4-thiadiazol-5-yl)thiomethyl-3-cephem-4-carboxylate], both of which are typical cephalosporins commercially available and clinically accepted nowadays [The New England Journal of Medicine 294, 24 (1976) and Journal of Pharmaceutical Science 64, 1899 (1975)]. There are also shown the effective doses of the typical compounds of this invention on the mice infected with Escherichia coli in comparison with that of cephaloridine.
Comparative protection tests of the compounds of this
invention and cephaloridine on infected mice
*Test animals: male mice (ICR/SLC) 5 mice per group per single dose
Infection: intraperitoneally with Escherichia coli O-111
Administration: a single subcutaneous dose immediately after challenge
Observation period: 7 days

[6] = test system: E. coli O-111; assay: Minimum Inhibitory Concentration, agar dilution, E. coli O-111; format: cell-based; details: Escherichia coli
From the text: as §2
Minimum Inhibitory Concentrations (mcg/ml, agar dilution)

[7] = test system: Cit. freundii GN 99; assay: Minimum Inhibitory Concentration, agar dilution, Cit. freundii GN 99; format: cell-based; details: Citrobacter freundii
From the text: as §1

[8] = test system: K. pneumoniae GN 3835; assay: Minimum Inhibitory Concentration, agar dilution, K. pneumoniae GN 3835; format: cell-based; details: Klebsiella pneumoniae
From the text: as §1

[9] = test system: K. pneumoniae DT; assay: Minimum Inhibitory Concentration, agar dilution, K. pneumoniae DT; format: cell-based; details: Klebsiella pneumoniae, read-out: Minimum Inhibitory Concentration
From the text: as §1

[10] = test system: Cit. freundii GN 1706; assay: Minimum Inhibitory Concentration, agar dilution, Cit. freundii GN 1706; format: cell-based; details: Citrobacter freundii
From the text: as §1

[11] = test system: Ent. cloacae IFO 12937; assay: Minimum Inhibitory Concentration, agar dilution, Ent. cloacae IFO 12937; format: cell-based; details: Enterobacter cloacae
[12] = test system: E. coli T-7; assay: Minimum Inhibitory Concentration, agar dilution, E. coli T-7; format: cell-based; details: Escherichia coli
From the text: as §1

[13] = test system: P. rettgeri 8(TNO 336); assay: Minimum Inhibitory Concentration, agar dilution, P. rettgeri 8(TNO 336); format: cell-based, Proteus rettgeri; details: Providencia rettgeri
From the text: as §1

[14] = test system: P. vulgaris IFO 3988; assay: Minimum Inhibitory Concentration, agar dilution, P. vulgaris IFO 3988; format: cell-based; details: Proteus vulgaris
From the text: as §1

[15] = GN4359, P. mirabilis GN 4359, agar dilution, read-out: Minimum Inhibitory Concentration
[16] = GN4733, P. rettgeri GN 4733, agar dilution, read-out: Minimum Inhibitory Concentration
[17] = IFO3168, P. morganii IFO 3168, agar dilution, read-out: Minimum Inhibitory Concentration
[18] = O111, E. coli O-111, agar dilution, read-out: Minimum Inhibitory Concentration
[19] = GN99, Cit. freundii GN 99, agar dilution, read-out: Minimum Inhibitory Concentration
[20] = GN3835, K. pneumoniae GN 3835, agar dilution, read-out: Minimum Inhibitory Concentration
[21] = K. pneumoniae DT, agar dilution
[22] = GN1706, Cit. freundii GN 1706, agar dilution, read-out: Minimum Inhibitory Concentration
[23] = IFO12937, Ent. cloacae IFO 12937, agar dilution, read-out: Minimum Inhibitory Concentration
[24] = T7, E. coli T-7, agar dilution, read-out: Minimum Inhibitory Concentration
[25] = P. rettgeri 8(TNO 336), read-out: Minimum Inhibitory Concentration
[26] = IFO3988, P. vulgaris IFO 3988, agar dilution, read-out: Minimum Inhibitory Concentration
[27] = GN4359, read-out: Minimum Inhibitory Concentration
[28] = GN4733, read-out: Minimum Inhibitory Concentration
[29] = IFO3168, read-out: Minimum Inhibitory Concentration
[30] = GN99, read-out: Minimum Inhibitory Concentration
[31] = GN3835, read-out: Minimum Inhibitory Concentration
[32] = GN1706, read-out: Minimum Inhibitory Concentration
[33] = T7, read-out: Minimum Inhibitory Concentration
[34] = read-out: Minimum Inhibitory Concentration, P. rettgeri 8(TNO 336)
[35] = IFO3988, read-out: Minimum Inhibitory Concentration

CC(=O)OCC1=C(C(=O)O)N2C(=O)C(NC(=O)Cc3csc(=N)n3O)C2SC1 (centres unmarked) [Example 1, sodium 7-[2-(2-imino-3-hydroxy-4-thiazolin-4-yl)acetamido]-3-acetoxymethyl-3-cephem-4-carboxylate]
MIC ([1]; E. coli NIHJ, agar dilution): 0.2 µg/mL
MIC [2, 15]: 0.2 µg/mL
MIC [3, 16]: 0.1 µg/mL
MIC [4, 17]: 0.39 µg/mL
ED50 [5]: 0.075 mg/kg
MIC [6, 18]: 0.1 µg/mL
MIC [7, 19]: 1.56 µg/mL
MIC [8, 20]: 0.2 µg/mL
MIC [9, 21]: 0.1 µg/mL
MIC [10, 22]: 3.13 µg/mL
MIC [11, 23]: 12.5 µg/mL
MIC [12, 24]: 3.13 µg/mL
MIC [13, 25]: ≤ 0.03 µg/mL
MIC [14, 26]: 0.39 µg/mL

N=c1scc(CC(=O)NC2C(=O)N3C(C(=O)O)=C(CSc4nnnn4CCO)CSC23)n1O (centres unmarked) [Example 17, sodium 7-[2-(2-imino-3-hydroxy-4-thiazolin-4-yl)acetamido]-3-[1-(2-hydroxyethyl)-1H-tetrazol-5-yl]thiomethyl-3-cephem-4-carboxylate]
MIC ([1]; E. coli NIHJ, agar dilution): 0.1 µg/mL
MIC [2, 15]: 0.1 µg/mL
MIC [3, 16]: 0.05 µg/mL
MIC [4, 17]: 0.39 µg/mL
MIC [6, 18]: 0.05 µg/mL
MIC [7, 19]: 0.39 µg/mL
MIC [8, 20]: 0.1 µg/mL
MIC [9, 21]: 0.05 µg/mL
MIC [10, 22]: 12.5 µg/mL
MIC [12, 24]: 1.56 µg/mL
MIC [13, 25]: ≤ 0.012 µg/mL
MIC [14, 26]: 0.2 µg/mL

Cc1nnc(SCC2=C(C(=O)O)N3C(=O)C(NC(=O)Cc4csc(=N)n4O)C3SC2)s1 (centres unmarked) [Example 4, sodium 7-[2-(2-imino-3-hydroxy-4-thiazolin-4-yl)acetamido]-3-(2-methyl-1,3,4-thiadiazol-5-yl)thiomethyl-3-cephem-4-carboxylate]
MIC ([1]; E. coli NIHJ, agar dilution): 0.05 µg/mL
MIC [2, 15]: 0.05 µg/mL
MIC [3, 16]: 0.1 µg/mL
MIC [4, 17]: 0.1 µg/mL
ED50 [5]: 0.019 mg/kg
MIC [6, 18]: 0.024 µg/mL
MIC [7, 19]: 0.78 µg/mL
MIC [8, 20]: 0.2 µg/mL
MIC [9, 21]: 0.05 µg/mL
MIC [10, 22]: 1.56 µg/mL
MIC [11, 23]: 50 µg/mL
MIC [12, 24]: 1.56 µg/mL
MIC [13, 25]: 0.012 µg/mL
MIC [14, 26]: 0.1 µg/mL

Cc1nsc(SCC2=C(C(=O)O)N3C(=O)C(NC(=O)Cc4csc(=N)n4O)C3SC2)n1 (centres unmarked) [Example 15, sodium 7-[2-(2-imino-3-hydroxy-4-thiazolin-4-yl)acetamido]-3-(3-methyl-1,2,4-thiadiazol-5-yl) thiomethyl-3-cephem-4-carboxylate]
MIC ([1]; E. coli NIHJ, agar dilution): 0.39 µg/mL
MIC [2, 15]: 0.1 µg/mL
MIC [3, 16]: 0.2 µg/mL
MIC [4, 17]: 1.56 µg/mL
MIC [6, 18]: 0.1 µg/mL
MIC [7, 19]: 0.78 µg/mL
MIC [9, 21]: 0.1 µg/mL
MIC [10, 22]: 12.5 µg/mL
MIC [12, 24]: 6.25 µg/mL
MIC [13, 25]: ≤ 0.012 µg/mL
MIC [14, 26]: 0.1 µg/mL

Cc1nnc(SCC2=C(C(=O)[O-])N3C(=O)C(NC(=O)Cn4cnnn4)[C@H]3SC2)s1.[Na+] (some centres unmarked) [Cefazolin, sodium 7-(1H-tetrazol-1-yl)acetamido-3-(2-methyl-1,3,4-thiadiazol-5-yl)thiomethyl-3-cephem-4-carboxylate, reference compound]
MIC [1]: 1.56 µg/mL
MIC [2, 27]: 3.13 µg/mL
MIC [3, 28]: > 100 µg/mL
MIC [4, 29]: > 100 µg/mL
MIC [6, 18]: 1.56 µg/mL
MIC [7, 30]: 50 µg/mL
MIC [8, 31]: 12.5 µg/mL
MIC [9]: 1.56 µg/mL
MIC [10, 32]: > 100 µg/mL
MIC [12, 33]: > 100 µg/mL
MIC [13, 34]: 0.2 µg/mL
MIC [14, 35]: 3.13 µg/mL

Cn1nnnc1SCC1=C(C(=O)O)N2C(=O)C(NC(=O)Cc3csc(=N)n3O)[C@H]2SC1 (some centres unmarked) [Example 9, 7-[2-(2-imino-3-hydroxy-4-thiazolin-4-yl)acetamido]-3-(1-methyltetrazol-5-yl)thiomethyl-3-cephem-4-carboxylic acid]
ED50 [5]: 0.04 mg/kg

N=c1scc(CC(=O)NC2C(=O)N3C(C(=O)O)=C(CSc4nnc(C(F)(F)F)s4)CSC23)n1O (centres unmarked) [Example 16, sodium 7-[2-(2-imino-3-hydroxy-4-thiazolin-4-yl)acetamido]-3-(2-trifluorometyl-1,3,4-thiadiazol-5-yl)thiomethyl-3-cephem-4-carboxylate]
MIC ([1]; E. coli NIHJ, agar dilution): 0.78 µg/mL
MIC [2, 15]: 0.78 µg/mL
MIC [3, 16]: 1.56 µg/mL
MIC [4, 17]: 3.13 µg/mL
MIC ([6]; O111, read-out: Minimum Inhibitory Concentration): 0.39 µg/mL
MIC [7, 19]: 0.78 µg/mL
MIC [9, 21]: 0.39 µg/mL
MIC [10, 22]: 6.25 µg/mL
MIC [12, 24]: 12.5 µg/mL
MIC [13, 25]: ≤ 0.012 µg/mL
MIC [14, 26]: 0.2 µg/mL

Cn1c(CO)nnc1SCC1=C(C(=O)[O-])N2C(=O)C(NC(=O)Cc3csc(=N)n3O)[C@H]2SC1.[Na+] (some centres unmarked) [Example 8, sodium 7-[2-(2-imino-3-hydroxy-4-thiazolin-4-yl)acetamido]-3-(3-hydroxymethyl-4-methyl-1,2,4-triazol-5-yl)thiomethyl-3-cephem-4-carboxylate]
MIC [1]: ≤ 0.2 µg/mL
MIC [2, 27]: ≤ 0.2 µg/mL
MIC [3, 28]: ≤ 0.2 µg/mL
MIC [4, 29]: ≤ 0.2 µg/mL
MIC [6, 18]: ≤ 0.2 µg/mL
MIC [7, 30]: 0.78 µg/mL
MIC [8, 31]: ≤ 0.2 µg/mL
MIC [9]: ≤ 0.2 µg/mL
MIC [10, 32]: 3.13 µg/mL
MIC ([11]; IFO12937, read-out: Minimum Inhibitory Concentration): 12.5 µg/mL
MIC [12, 33]: 1.56 µg/mL
MIC [13, 34]: ≤ 0.2 µg/mL
MIC [14, 35]: 0.39 µg/mL

Cn1nnnc1SCC1=C(C(=O)O)N2C(=O)C(NC(=O)Cc3csc(=N)n3O)C2SC1 (centres unmarked) [Example 5, sodium 7-[2-(2-imino-3-hydroxy-4-thiazolin-4-yl)acetamido]-3-(1-methyltetrazol-5-yl) thiomethyl-3-cephem-4-carboxylate]
MIC ([1]; E. coli NIHJ, agar dilution): 0.05 µg/mL
MIC [2, 15]: 0.1 µg/mL
MIC [3, 16]: 0.05 µg/mL
MIC [4, 17]: 0.78 µg/mL
MIC [6, 18]: ≤ 0.03 µg/mL
MIC [7, 19]: 0.39 µg/mL
MIC [8, 20]: 0.1 µg/mL
MIC [9, 21]: 0.05 µg/mL
MIC [10, 22]: 0.78 µg/mL
MIC [11, 23]: 6.25 µg/mL
MIC [12, 24]: 1.56 µg/mL
MIC [13, 25]: ≤ 0.03 µg/mL
MIC [14, 26]: 0.2 µg/mL
